Reference: patent publication US7763662B2, “Use of C2-substituted indan-1-ol systems for preparing medicaments for the prophylaxis or treatment of obesity” (Sanofi-Aventis Deutschland GmbH, priority 2001, dated 2010)

What was measured:
[1] = test system: female NMRI mice; experiment: Anorectic action: cumulative evaporated milk consumption after 24 h feed removal; format: in vivo; conditions: ip or po (route not specified), N=5; for Reduction in cumulative milk consumption as % of the control: compared with vehicle-treated control animals; for cumulative milk consumption by treated animals: milk offered 30 min after administration, monitored for 7 hours
Protocol: The activity of the compounds was assayed as follows:
The anorectic action was tested on female NMRI mice. After removal of feed for 24 hours, the preparation to be tested was administered intraperitoneally (ip) or by gavage (po). The animals were housed singly and, with free access to drinking water, they were offered evaporated milk 30 minutes after administration of the preparation. The consumption of evaporated milk was determined and the general behavior of the animals was monitored every half an hour for 7 hours. The measured milk consumption was compared to that of vehicle-treated control animals.

Row | SMILES | melting point [°C] | Reduction in cumulative milk consumption as % of the control ([1]; dose 20 mg/kg) | cumulative milk consumption by treated animals ([1]; dose 20 mg/kg) | Reduction in cumulative milk consumption as % of the control ([1]; dose 50 mg/kg) | cumulative milk consumption by treated animals ([1]; dose 50 mg/kg)
1 | CS(=O)(=O)C1Cc2cc(Cl)ccc2C1O (stereo not shown) [Example 1, 5-Chloro-2-methylsulfonylindan-1-ol] | 163 | 50 % of the control | 5/1.94 ml | – | –
2 | CCS(=O)(=O)C1Cc2cc(Cl)ccc2C1O (stereo not shown) [Example 3, 5-Chloro-2-ethanesulfonylindan-1-ol] | 145 | – | – | – | –
3 | CSC1Cc2cc(Cl)ccc2C1O (stereo not shown) (hydrate or solvate) [Example 4, 5-Chloro-2-methylsulfanylindan-1-ol] | 197.1 | – | – | – | –
4 | CSC1Cc2cc(Cl)ccc2C1O (stereo not shown) [Example 4, 5-Chloro-2-methylsulfanylindan-1-ol] | – | – | – | 85 % of the control | 5/0.70 ml
